Data set [1] is described as follows: Quantum yields of photoinduced CH3CN ligand exchange in H2O (Example 12). The format is physicochemical. The conditions noted are these: for quantum yield, first CH3CN ligand exchange (Φ500) / quantum yield, first CH3CN ligand exchange (Φ550): H2O; for quantum yield, first CH3CN ligand exchange (Φ500): 500 nm irradiation. How it is done: The quantum yields (Φ) for photoinduced ligand exchange of the first CH3CN in H2O were measured for complexes 12.1 and 12.3 with 500 nm and 550 nm irradiation wavelengths using the appropriate bandpass filters. The moles of complex reacted was quantitated using electronic absorption spectroscopy by monitoring the decrease in MLCT absorption maximum of each complex as a function of irradiation time (moles reacted/s) at early irradiation times, and Reinecke's salt was used as an actinometer to determine the intensity (Einstein/s) of the Xe arc lamp at the corresponding wavelengths. The Φ for the photoinduced ligand exchange of the second CH3CN ligand was measured for 12.1 using 400 nm and 550 nm irradiation wavelengths using the appropriate bandpass filters monitoring the decrease in the MLCT absorption peak of the mono-aqua intermediate, 12.4.

The conditions of data set [2]: reported, cited from earlier work.
Another data set has as its target T1, papain (Carica papaya, UniProt P00784).
T1 sequence (P00784 134-345): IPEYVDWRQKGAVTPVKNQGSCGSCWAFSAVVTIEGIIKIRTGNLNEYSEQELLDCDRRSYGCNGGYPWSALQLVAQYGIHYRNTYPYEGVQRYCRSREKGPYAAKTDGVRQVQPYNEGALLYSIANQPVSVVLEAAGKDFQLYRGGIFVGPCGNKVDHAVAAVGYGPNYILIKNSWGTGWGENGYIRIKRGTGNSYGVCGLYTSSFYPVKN
Nature of the data set: Papain inhibition, chromogenic substrate BAPNA, light vs dark. It is filed as biochemical. The protocol: FIG. 5. […] Data points represent an average of three reactions and error bars are standard deviations.
Papain Inhibition Studies. The inhibition studies with papain were carried out following a modified procedure by Gütschow and coworkers (Löser et al., J. Med. Chem. 2005, 48, 7688-7707). […] A 0.25 mM papain stock solution was prepared in 0.1 mM HCl and kept frozen. For each experiment, the stock solution was diluted 250 times and activated for 45 min at 25° C. with a 0.1 M phosphate pH 6.5, 15 mM DTT and 2.5 mM EDTA buffer solution. A 10.0 mM solution of BAPNA in DMSO was prepared daily and plated (final concentration 1.0 mM). The inhibitor was plated as a 1% DMSO solution in the assay buffer.
The photolysis was conducted for 10 minutes (with gentle shaking of the plate every 2-3 minutes) using a 250 W tungsten halogen lamp (Osram Xenophot HLX) powered by a 24 V power supply. The irradiation wavelength was selected by placing a bandpass filter (395 nm cutoff) between the lamp and the sample, along with a 10 cm water cell to absorb infrared light. After photolysis, the reaction was initiated by addition of 65 μL of enzyme (final volume 100 μL, final enzyme concentration 0.65 μM). The absorbance changes due to the hydrolysis product p-nitroaniline (pNA) were measured at 405 nm every 2 min for 14 min (8 measures) at 25° C.

In data set [3] the test system is prostate cancer PC3 cells. Nature of the data set: MTT cell viability, PC3 cells. It is filed as cell-based. To be noted: 1 nM-100 μM, light or dark, up to 72 h. How it is done:
(§1) FIG. 6. Cytotoxicity of cis-[Ru(bpy)2(2)2]Cl2 (3) and the control compound cis-[Ru(bpy)2(MeCN)2](PF6)2 on BMM cells (A-B) and prostate cancer PC3 cells (C-D). […] Cell viability was determined using the MTT assay after 24 h for BMM cells and 72 h for PC3 cells, and is reported relative to control with only buffer added. Error bars represent the standard deviations of triplicate wells, and data are representative of three independent experiments.
These effects are highly dependent on the nature of ligands bound to ruthenium, and with some compounds treatment for up to 72 h is necessary to observe growth inhibitory effects. Later time points were not examined with BMM cells due to complications in maintaining these cells in culture over long periods of time, with or without VI.

The next data set has as its system BMM cells. Nature of the data set: MTT cell viability, BMM cells. The format is cell-based, murine. The conditions noted are these: 1 nM-100 μM, light or dark, after 24 h. The protocol: In order to gain more insight into the biological behavior of the caged inhibitor, effects of VI and its byproducts on cell viability in BMM cells were determined under light and dark conditions. BMM cells were treated with either VI or cis-[Ru(bpy)2(MeCN)2](PF6)2 as a control (1 nM-100 μM), incubated for 30 min, left in the dark or irradiated with a tungsten halogen lamp for 15 min and then washed, using the same protocol as the confocal microscopy studies shown in FIG. 15. After 24 h viabilities were determined using the MTT assay (FIG. 17).
as §1

The target in the next data set is T2, human cathepsin B (Homo sapiens, UniProt P07858).
T2 construct: Purified cathepsin B (human liver) was obtained from Enzo Life Sciences; purchased Enzo Life Sciences; host or cells: human liver (tissue-purified)
Nature of the data set: Cathepsin B inhibition, Z-Arg-Arg-AMC, light vs dark. The format is biochemical. To be noted: without irradiation (dark); pH 6.0. An excerpt: (§2) The irradiation wavelength was selected by placing a bandpass filter (395 nm cutoff) between the lamp and the sample, along with a 10 cm water cell to absorb infrared light.

The target of data set [4] is T3, human cathepsin K (Homo sapiens, UniProt P43235).
T3 sequence (P43235 115-329): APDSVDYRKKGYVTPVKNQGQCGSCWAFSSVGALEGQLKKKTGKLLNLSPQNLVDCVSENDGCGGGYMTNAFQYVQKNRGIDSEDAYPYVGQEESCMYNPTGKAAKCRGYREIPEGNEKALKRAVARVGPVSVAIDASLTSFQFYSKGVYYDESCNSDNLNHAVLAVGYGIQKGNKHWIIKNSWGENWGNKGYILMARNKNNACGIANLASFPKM
Nature of the data set: Cathepsin K inhibition, Z-Gly-Pro-Arg-AMC, light vs dark. It is filed as biochemical. To be noted: without irradiation (dark); pH 5.5. The protocol:
Cathepsins B, K and L were then examined for photoinduced inhibition with V. IC50 values for 1 and V (with and without irradiation) were determined in aqueous buffer at pH 5.5 for cathepsins L and K, and pH 6.0 for cathepsin B using fluorogenic substrates selective for each enzyme (Table 1). […] Control experiments show some level of inhibition by [Ru^II(bpy)2(MeCN)2](PF6)2, which may explain the lower ratios for dark vs. light conditions observed with cathepsins vs. papain.
The IC50 values represent the average from three independent experiments. […] Activities were determined with the fluorogenic substrates Z-Arg-Arg-AMC (cathepsin B), Z-Gly-Pro-Arg-AMC (cathepsin K) and Z-Phe-Arg-AMC (cathepsin L) (where AMC is aminomethylcoumarin). […]
Cathepsin Inhibition Studies. Cathepsin enzyme activity was determined from kinetic measurements performed by fluorometric detection of the hydrolysis product aminomethylcoumarin (AMC) at 37° C. every 2 min for 14 min (8 measures). […]
The photolysis was conducted for 10 minutes (with gentle shaking of the plate every 2-3 min) using a 250 W tungsten halogen lamp (Osram Xenophot HLX) powered by a 24 V power supply. […] Cathepsin enzyme activity was determined from kinetic measurements performed by fluorometric detection of the hydrolysis product AMC at 37° C. every 2 min for 14 min (8 measures) and MAX RFU slope values used for plotting (FIG. 7).

In data set [5] the target is T4, human cathepsin B in DU145 lysates (Homo sapiens, UniProt P07858).
T4 construct: endogenous in cells; host or cells: DU145 prostate carcinoma cells (ATCC), lysate
Nature of the data set: Cathepsin B activity in DU145 lysates, Z-Arg-Arg-AMC. The conditions noted are these: DU145 lysate, without irradiation (dark). It is filed as biochemical.
From the text: as §2

In a further data set the target is T5, human cathepsin L (Homo sapiens, UniProt P07711).
T5 construct: purchased Sigma
Nature of the data set: Cathepsin L inhibition, Z-Phe-Arg-AMC, light vs dark. It is filed as biochemical. The conditions noted are these: without irradiation (dark); pH 5.5.
From the text: as §2

For data set [6], the target named is T6, human cathepsin B in hBMSC lysates (Homo sapiens, UniProt P07858).
T6 construct: lysates from primary human bone marrow stromal cells (hBMSC), an important source of cathepsin activity; endogenous in cells; host or cells: primary human bone marrow stromal cells (hBMSC), lysate
Nature of the data set: Cathepsin B activity in hBMSC lysates, Z-Arg-Arg-AMC. It is filed as biochemical. The conditions noted are these: hBMSC lysate, without irradiation (dark).
From the text: as §2

For data set [7], the target named is T3, human cathepsin K. Nature of the data set: Cathepsin K inhibition by the Ru(TPA)-caged inhibitor, 365 nm light (Example 10). To be noted: 500 μM, highest concentration surveyed, light and dark. It is filed as biochemical. The protocol:
Complex 10.2 acts as a potent, photoactivated inhibitor of human cathepsin K. IC50 values were determined for 10.2 and 10.3 under dark conditions, and upon irradiation with 365 nm light (FIG. 20).

Data set [8] is described as follows: Dark controls: ligand exchange in the absence of light. The format is physicochemical. The conditions noted are these: H2O, room temperature (˜22° C.). How it is done:
FIG. 23. Dark Control with respect to FIG. 22 showing that the nitrile ligands are not released under similar conditions in the absence of light for a period of 24 hours.
Photochemistry. The photoreactivity of 12.1-12.3 was evaluated by monitoring the changes to the electronic absorption and ^1H NMR spectra as a function of irradiation time. […] Complexes 12.1-12.3 are inert to ligand substitution in the dark at room temperature under similar experimental conditions. For the symmetrical complexes 12.2 and 12.3, one resonance is observed in CD3CN corresponding to the methyl protons of both bound acetonitrile ligands at 2.22 ppm and 2.28 ppm, respectively. During the photolysis of 12.2 in CD3CN with λirr≧455 nm, the resonance at 2.22 ppm decreases with increasing irradiation time, while a peak at 1.96 ppm corresponding to free CH3CN in CD3CN increases in intensity at the same rate. The photolysis of 12.3 in CD3CN with λirr≧610 nm yields similar results with the decrease of the peak at 2.28 ppm with the concomitant increase of the free CH3CN resonance at 1.96 ppm. The intensity of the peak corresponding to free CH3CN at 1.96 ppm integrates to two ligands at the end of the photolysis for both 12.2 and 12.3 in CD3CN, indicative that that both CH3CN ligands in 12.2 and 12.3 are exchanged. […] Moreover, no shifts are observed in the aromatic region as the reaction progresses. […]

pIC50: −log10 of the molar value.

Consider nine molecules from US9593138B2, “Nitrile-containing enzyme inhibitors and ruthenium complexes thereof” (Wayne State University, priority 2012, dated 2017).

T5 sequence (P07711 114-333): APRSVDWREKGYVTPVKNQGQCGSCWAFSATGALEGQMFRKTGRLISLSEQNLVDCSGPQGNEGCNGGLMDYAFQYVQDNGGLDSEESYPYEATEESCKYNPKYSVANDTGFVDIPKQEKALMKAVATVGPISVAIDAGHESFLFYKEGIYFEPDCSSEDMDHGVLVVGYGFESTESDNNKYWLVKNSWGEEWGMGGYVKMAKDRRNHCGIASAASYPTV

`CC#N.CC#N.F[P-](F)(F)(F)(F)F.F[P-](F)(F)(F)(F)F.[Ru+2].c1cnc2c(c1)ccc1cccnc12.c1cnc2c(c1)ccc1cccnc12` [12.2, [Ru(phen)2(CH3CN)2](PF6)2]: the “quantum yield, first CH3CN ligand exchange (Φ400)” value in data set [1] (400 nm irradiation) is on record as 0.22(1).

As to `CC#N.CC#N.F[P-](F)(F)(F)(F)F.F[P-](F)(F)(F)(F)F.[Ru+2].c1ccc2nc(-c3ccc4ccccc4n3)ccc2c1.c1ccc2nc(-c3ccc4ccccc4n3)ccc2c1` [12.3, [Ru(biq)2(CH3CN)2](PF6)2], in data set [1], the “quantum yield, first CH3CN ligand exchange (Φ500)” value was 0.24(1). For the same molecule, the “quantum yield, first CH3CN ligand exchange (Φ550)” value in data set [1] (550 nm irradiation) is reported as 0.150(8).

With `N#Cc1c[nH]c(=O)[nH]c1=O.N#Cc1c[nH]c(=O)[nH]c1=O.[Cl-].[Cl-].[Ru+2].c1ccc(-c2ccccn2)nc1.c1ccc(-c2ccccn2)nc1` [cis-[Ru(bpy)2(5-cyanouracil)2]Cl2], in data set [2], the “quantum yield for formation of the mono-aqua species (ΦR→I)” value was 0.16(4).

In general, pIC50 refers to the negative decadic logarithm of the IC50, by convention in mol/L. Read a high pIC50 as a small IC50. `CC#N.CC#N.F[P-](F)(F)(F)(F)F.F[P-](F)(F)(F)(F)F.[Ru+2].c1ccc(-c2ccccn2)nc1.c1ccc(-c2ccccn2)nc1` [cis-[Ru(bpy)2(MeCN)2](PF6)2, reference compound] had a pIC50 against papain (control complex, same profile under light and dark conditions) of less than 3.30. The “growth inhibitory effects (MTT)” value in data set [3] is listed as “not observed”. Also, in the data set on BMM cells, the “cell viability (MTT)” value was “no effects on viability”.

For the molecule `CC#N.CC#N.[Cl-].[Cl-].[Ru+2].c1ccc(-c2ccccn2)nc1.c1ccc(-c2ccccn2)nc1` [cis-[Ru(bpy)2(MeCN)2]Cl2], the “overall photoaquation quantum yield (ΦR→P)” value in data set [2] (λirr=400 nm) is recorded as 0.21.

With `CC(=O)N[C@@H](Cc1ccccc1)C(=O)NCC#N` [compound 1, (S)-2-Acetamido-N-(cyanomethyl)-3-phenylpropanamide], the pIC50 against human cathepsin B is 3.88; at human cathepsin K [4], 4.92; in data set [5], 3.74; against papain (without irradiation, phosphate buffer pH 6.5, enzyme 650 nM), 6.20; against human cathepsin L it was 4.14; in data set [6] it was 3.74.

With [Ru(TPA)(CH3CN)2](PF6)2 [10.1], the “inhibition of cathepsin K” value against human cathepsin K [7] is on record as “no inhibition”.

As to [Ru(biq)(phen)(CH3CN)2](PF6)2 [12.1], the “quantum yield, first CH3CN ligand exchange (Φ500)” value in data set [1] is listed as 0.26(1). In addition, the “quantum yield, first CH3CN ligand exchange (Φ550)” value in [1] (550 nm irradiation) was 0.140(5).

Regarding “cis-[Ru(bpy)(biq)(CH3CN)(H2O)]^2+ [12.4]”, in data set [1] (400 nm irradiation, to the bis-aqua complex 12.5), the “quantum yield, exchange of the remaining CH3CN ligand (Φ400)” value is given as 0.0045(1). The “quantum yield, exchange of the remaining CH3CN ligand (Φ550)” value in data set [1] (550 nm irradiation, to the bis-aqua complex 12.5) is recorded as 0.0014(5). Also, in [8], the “stability in the dark” value is “stable in the dark for up to 6 hours”.
